Each block holds one compound with its values, some of them ahead of it.
How the values were obtained:
Assay type in all cases: physicochemical
[1] = Dynamic surface tension, maximum bubble pressure method (Kruss BP-2)
Method: Dynamic surface tension is measured using a Kruss BP-2 Bubble Pressure Tensiometer. During the test, high purity nitrogen gas bubbles are produced in the surfactant solution at an exactly defined bubble generation rate. The gas bubbles enter the liquid through a glass capillary of known radius (0.223 mm). During this process the pressure passes through a maximum whose value is recorded by the instrument. Surface tension is then calculated from the maximum pressure during bubble formation, and reported as a function of bubble surface age, in ms, and bubble frequency. The measurements are made at ambient temperature.
Dynamic surface tension of surfactants at varying surface ages (presented as bubble frequency) are measure by bubble pressure method on Kruss BP2 tensiometer at 0.1 wt % concentration and 25° C.

[2] = Caustic stability: solubility in NaOH solution
Method: The caustic stability of compounds 1 and 2 is measured by their solubility in 10 wt % NaOH solution: stock solutions are prepared at 1 wt %. Into a sample vial, 1.0 gram of a stock solution is weighed and then 9.0 grams of 11.1 wt % NaOH solution is added to get a 0.1 wt % surfactant solution in 10% NaOH. Both solutions are clear at this condition. In contrast, Tomadol® 91-6 (C9-C11 alcohols ethoxylated to 6EO, cloud point=52° C.) solution (0.1 wt %) becomes cloudy at 5% NaOH content.

[3] = Acidic stability: appearance and shake foam in 0.01 M HCl
Method: The acidic stability of compounds 1 and 2 are tested and compared with Triton™ CG-110 in 0.01 M HCl: solutions are prepared in 0.01 M HCl at 0.1 wt % surfactant concentration. Compound 1 solution is cloudy at this HCl concentration, indicating its cloud point is reduced by the presence of HCl.

[4] = Surface tension and critical micelle concentration, Kruss K100 tensiometer with Wilhelmy plate; conditions: 25° C., FIG. 1
Method: The surface tension and critical micelle concentration (cmc) of a surfactant solution is measured using Kruss K100 Surface Tensiometer fitted with a Wilhelmy platinum plate. A standard method is utilized. In this method, an increment of surfactant solution is added using a Dosimat™ dosimeter to the vessel initially containing deionized water, and then thoroughly stirred. The surface tension of the resulting solution is then measured. The process is repeated at each concentration data point. Two measurements are made for each system at ambient temperature.
Surface tension-Concentration data for the compound 3 at 25° C. are plotted in FIG. 1.

[5] = Dynamic surface tension, maximum bubble pressure method (Kruss BP-2); remark: listed apart in the source

SMILES: CCCCCCCCCCOCC(O)COCC(O)COCC(O)CO (stereo not drawn) [Compound 2, 3-(3-(3-(decyloxy)-2-hydroxypropoxy)-2-hydroxypropoxy)propane-1,2-diol]
acidic stability compared with Triton CG-110 ([3]; 0.01 M HCl): improved stability

SMILES: CCCCCC(CCC)COCC(O)COCC(O)CO (stereo not drawn) [Compound 3, 3-(2-hydroxy-3-((2-propylheptyl)oxy)propoxy)propane-1,2-diol]
critical micelle concentration (cmc) [4]: about 700 ppm
water surface tension after reaching critical micelle concentration [4]: 26-27 dynes/cm
surface tension at bubble frequency larger than 10 bubbles/sec ([1]; 0.1 wt %, 25° C., >10 bubbles/sec, FIG. 2): around 37 dynes/cm
surface tension in the whole range of surface ageing time compared to the Lutensol products ([1]; 0.1 wt %, 25° C., FIG. 2): lower surface tension
surface tension over the whole tested range of ageing time compared to C12TG, C11DG and C10DG ([1]; 0.1 wt %, 25° C., FIG. 2): lower surface tension
surface tension at lower bubble frequency compared to Surfynol 420 ([1]; 1-6 bubbles/sec., 0.1 wt %, FIG. 2): significantly lower surface tension
Surface Tension @ 6 bubbles/sec., 0.1 wt % ([1]; 25° C.): 33.3 dyne/cm
Surface Tension @ 6 bubbles/sec., 0.05 wt % [5]: 39.4 dyne/cm

SMILES: CCCCCCCCCCCCOCC(O)COCC(O)COCC(O)CO (stereo not drawn) [Compound C12TG, 3-(3-(3-(dodecyloxy)-2-hydroxypropoxy)-2-hydroxypropoxy)propane-1,2-diol, reference compound]
Surface Tension @ 6 bubbles/sec., 0.1 wt % ([1]; 25° C.): 56.9 dyne/cm

Continued, values first:

surface tension over the whole tested range of ageing time compared to C12TG, C11DG and C10DG ([1]; 0.1 wt %, 25° C., FIG. 2): lower surface tension
Surface Tension @ 6 bubbles/sec., 0.1 wt % ([1]; 25° C.): 35.6 dyne/cm
appearance of 0.1 wt % surfactant solution in 10% NaOH [2]: clear
acidic stability compared with Triton CG-110 ([3]; 0.01 M HCl): improved stability
Foam Volume, 20 h ([3]; 0.1 wt % in 0.01M HCl, 10 ml, shaken at high for 10 min., after 20 hours in air at room temperature): 17 mL
Foam Volume, 0 h ([3]; 0.1 wt % in 0.01M HCl, 10 ml, shaken at high for 10 min., right after preparation): 17 mL
foam persistence after shaking, 20 h ([3]; 0.1 wt % in 0.01M HCl, after 20 hours at room temperature): no change
foam persistence after shaking, 0 h ([3]; 0.1 wt % in 0.01M HCl, right after preparation): no change
appearance of solution in 0.01 M HCl ([3]; 0.1 wt % surfactant, 0.01 M HCl): cloudy
SMILES: CCCCCCCCCOCC(O)COCC(O)CO (stereo not drawn) [Compound 1, 3-[3-(nonyloxy)-2-hydroxypropoxy]-1,2-propanediol]

Surface Tension @ 6 bubbles/sec., 0.1 wt % ([1]; 25° C.): 43.8 dyne/cm
SMILES: CCCCCCCCCCOCC(O)COCC(O)CO (stereo not drawn) [Compound 4, 3[3-(decyloxy)-2-hydroxypropoxy]-1,2-propanediol]

Surface Tension @ 6 bubbles/sec., 0.1 wt % ([1]; 25° C.): 61.4 dyne/cm
SMILES: CCCCCCCCCCCOCC(O)COCC(O)CO (stereo not drawn) [Compound 6, 3-(2-hydroxy-3-(undecyloxy)propoxy)propane-1,2-diol]
